Measured values published in patent US20100240580A1, “AZOLOARINE DERIVATIVES, METHOD FOR THE PRODUCTION THEREOF, PHARMACEUTICALS CONTAINING THESE COMPOUNDS AND THE USE THEREOF” (SANOFI-AVENTIS, priority 2007, published 2010).

What follows are compounds tested against T1, SCD1 (Rattus norvegicus, UniProt P07308) (assay: stearoyl-CoA desaturase (SCD1) activity, thin-layer chromatography assay with rat liver microsomes). Settings: compound at 10 μM, [1-14C]-stearic acid, 37° C., 1 h.
T1 construct: The resuspended microsome fraction was stored at −80° C; from tissue; host or cells: liver microsomes of male Wistar rats fed a carbohydrate-rich, low-fat diet
T1 sequence (P07308 1-358): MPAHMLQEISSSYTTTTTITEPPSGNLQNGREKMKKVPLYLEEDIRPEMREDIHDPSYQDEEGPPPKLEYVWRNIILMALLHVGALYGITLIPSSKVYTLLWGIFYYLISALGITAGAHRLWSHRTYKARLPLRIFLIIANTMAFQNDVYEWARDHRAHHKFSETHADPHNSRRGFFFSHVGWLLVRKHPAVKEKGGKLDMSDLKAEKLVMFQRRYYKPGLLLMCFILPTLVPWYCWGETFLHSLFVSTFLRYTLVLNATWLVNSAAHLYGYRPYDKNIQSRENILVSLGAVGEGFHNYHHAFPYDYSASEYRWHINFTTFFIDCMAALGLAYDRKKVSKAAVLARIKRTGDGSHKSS
Type: biochemical
Procedure: The activity of the compounds of the invention of the formula I was investigated in the following assay system with microsomal enzymes:
The livers of male Wistar rats which (to induce SCD1 expression) have been fed with a carbohydrate-rich, low-fat diet were homogenized with a Potter tissue homogenizer and differential centrifugation in a buffer which contained 250 mM sucrose and 5 mM HEPES (pH 7.0). The resuspended microsome fraction was stored at −80° C. The stearoyl-CoA desaturase activity was determined in a thin-layer chromatography assay with […] stearic acid. Stated briefly, the respective compounds of the invention (in DMSO in a final concentration of 1% [v/v]) were incubated with 15 μg of the rat liver microsomes in 200 μl of assay buffer (6 mM MgCl2, 250 mM sucrose, 150 mM KCl, 40 mM NaF, 100 mM Na2HPO4 (pH 7.4), 1.3 mM ATP, 1.5 mM reduced glutathione, 60 μM CoA, 0.33 mM nicotinamide and 0.94 mM NADH) at room temperature for 10 min. 0.5 μCi of [1-^14C]-stearic acid (55 mCi/mmol) was added, and the mixture was incubated at 37° C. for 1 h. The radiolabeled fatty acids were then hydrolyzed with 2.5 M KOH/MeOH:H2O (4:1) at 65° C. for 4 h, protonated with 280 μl of formic acid and extracted with 500 μl of hexane. The TLC plates were immersed in 10% AgNO3 and heat-activated before use. 150 μl of the hexane phase were put on the plates, and the TLC plates were developed in buffer (chloroform:methanol:acetic acid:water [90:8:1:0.8]) and dried. The plates were read in a PhosphoImager to quantify the SCD1 activity.
The skilled person is able to modify this assay to determine the inhibition of stearoyl-CoA desaturase activity in various respects.

| SMILES | % Inhibition (10 μM) |
| --- | --- |
| O=C(NCc1ccc(Cl)s1)c1ccc2nc(-c3ccc(C(=O)c4ccccc4C(F)(F)F)cc3)[nH]c2c1 [Example 27, 2-[4-(2-Trifluoromethylbenzoyl)phenyl]-3H-benzimidazole-5-(5-chlorothiophen-2-ylmethyl)-carboxamide] | 100% |
| CC(C)CNC(=O)c1ccc2nc(-c3ccc(C(=O)c4ccccc4C(F)(F)F)cc3)[nH]c2c1 [Example 20, 2-[4-(2-Trifluoromethylbenzoyl)phenyl]-3H-benzoimidazole-5-isobutylcarboxamide] | 77% |
| O=C(NCCC1CC1)c1ccc2nc(-c3ccc(Oc4ccccc4C(F)(F)F)cc3)[nH]c2c1 [Example 23, 2-[4-(2-Trifluoromethylphenoxy)phenyl]-3H-benzimidazole-5-(2-cyclopropylethyl)-carboxamide] | 96% |
| O=C(NCc1nccs1)c1ccc2nc(-c3ccc(Oc4ccccc4)cc3)[nH]c2c1 [Example 9, 2-(4-Phenoxyphenyl)-3H-benzimidazole-5-(thiazol-2-ylmethyl)carboxamide] | 29% |
| O=C(NCc1nccs1)c1ccc2nc(-c3ccc(Oc4ccccc4C(F)(F)F)cc3)[nH]c2c1 [Example 25, 2-[4-(2-Trifluoromethylphenoxy)phenyl]-3H-benzimidazole-5-(thiazol-2-ylmethyl)carboxamide] | 100% |
| O=C(NCc1cccs1)c1ccc2nc(-c3ccc(C(=O)c4ccccc4C(F)(F)F)cc3)[nH]c2c1 [Example 19, 2-[4-(2-Trifluoromethylbenzoyl)phenyl]-3H-benzimidazole-5-(thiophen-2-ylmethyl)-carboxamide] | 100% |
| CC(C)CCNC(=O)c1ccc2nc(-c3ccc(Oc4ccccc4Cl)cc3)[nH]c2c1 [Example 13, 2-[4-(2-Chlorophenoxy)phenyl]-3H-benzoimidazole-5-(3-methylbutyl)carboxamide] | 58% |
| O=C(NCc1ccc(Cl)s1)c1ccc2nc(-c3ccc(Oc4ccccc4Cl)cc3)[nH]c2c1 [Example 15, 2-[4-(2-Chlorophenoxy)phenyl]-3H-benzoimidazole-5-(5-chlorothiophen-2-yl-methyl)carboxamide] | 95% |
| O=C(NCc1nccs1)c1ccc2[nH]c(-c3ccc(C(=O)c4ccccc4C(F)(F)F)cc3)nc2c1 [Example 28, 2-[4-(2-Trifluoromethylbenzoyl)phenyl]-1H-benzimidazole-5-(thiazol-2-ylmethyl)-carboxamide] | 100% |
| O=C(NCCC1CC1)c1ccc2nc(-c3ccc(Oc4ccccc4Cl)cc3)[nH]c2c1 [Example 14, 2-[4-(2-Chlorophenoxy)phenyl]-3H-benzoimidazole-5-(2-cyclopropylethyl)carboxamide] | 80% |
| CC(C)CCNC(=O)c1ccc2nc(-c3ccc(Oc4ccccc4C(F)(F)F)cc3)[nH]c2c1 [Example 24, 2-[4-(2-Trifluoromethylphenoxy)phenyl]-3H-benzimidazole-5-(3-methylbutyl)carboxamide] | 77% |
| O=C(NCc1ccc(Cl)s1)c1ccc2nc(-c3ccc(Oc4ccccc4)cc3)[nH]c2c1 [Example 8, 2-(4-Phenoxyphenyl)-3H-benzimidazole-5-(5-chlorothiophen-2-ylmethyl)carboxamide] | 37% |
| O=C(NCc1nccs1)c1ccc2nc(-c3ccc(Oc4ccccc4Cl)cc3)[nH]c2c1 [Example 16, 2-[4-(2-Chlorophenoxy)phenyl]-3H-benzoimidazole-5-(thiazol-2-ylmethyl)carboxamide] | 86% |
